{
  "source": "paper PMC7939384",
  "about": "“In crystallo screening for proline analog inhibitors of the proline cycle enzyme PYCR1” (The Journal of Biological Chemistry, 2021)",
  "key": {"[1]": {"test_system": "MCF10A hRAS^V12 breast cancer spheroids", "test": "13C5-glutamine tracer analysis of de novo proline biosynthesis in spheroids", "format": "cell-based", "conditions": "5 mM, 5th day of treatment, 13C5-glutamine incubation, vs untreated", "excerpt": "We tested whether NFLP treatment decreases proline biosynthesis in breast cancer cells grown as spheroids. To do so we applied ^13C tracer analysis ([19]), which is a method that can inform about nutrient contribution to biosynthetic pathways, to MCF10A hRAS^V12 breast cancer spheroids grown in DMEM/F12 containing proline. Specifically, we measured the contribution of ^13C5-glutamine to proline, which enables us to conclude on changes in de novo proline biosynthesis.\nFigure 7 NFLP targets proline metabolism in breast cancer spheroids.A, abundance of proline M + 0 and M + 5 labeling in MCF10A hRAS^V12 spheroids upon ^13C5-glutamine incubation and treatment without (n = 3) or with NFLP (5 mM; n = 3). Analysis was performed at 5th day of treatment. B, relative abundance of intracellular proline levels in MCF10A hRAS^V12 spheroids upon treatment (5 days) without (n = 6), with THFA (n = 3) or with NFLP (n = 6). C, protein content in MCF10A hRAS^V12 spheroids treated for 5 days without (n = 6), with THFA (n = 3) or with NFLP (n = 6). Bar graphs show mean ± S.D. from biological independent samples and P-values were obtained with Mann-Whitney tests. […]\nTHFA and NFLP were supplemented (pH neutralized with NaOH) at day zero to the media of MCF10A H-RAS^V12 cells at the concentration of 5 mM. Protein levels were detected with the use of a […] (Thermo Scientific). […]"}, "[2]": {"molecular_target": "T1, human PYCR1 (Homo sapiens, UniProt P32322)", "T1 sequence (P32322 1-300)": "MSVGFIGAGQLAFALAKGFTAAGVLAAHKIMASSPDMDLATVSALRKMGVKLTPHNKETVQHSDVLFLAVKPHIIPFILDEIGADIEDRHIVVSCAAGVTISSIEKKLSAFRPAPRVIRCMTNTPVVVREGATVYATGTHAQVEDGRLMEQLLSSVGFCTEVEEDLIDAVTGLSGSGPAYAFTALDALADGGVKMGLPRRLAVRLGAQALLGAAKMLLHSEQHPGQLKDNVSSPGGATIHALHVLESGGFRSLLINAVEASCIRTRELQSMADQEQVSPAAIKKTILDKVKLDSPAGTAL", "test": "In crystallo screening: electron density as readout for binding (crystal soaking)", "design": "includes residues 1–300 of the full-length 319-residue enzyme; inferred from the Ni-NTA purification; made in house; host or cells: Escherichia coli BL21 (DE3)", "conditions": "apo crystals soaked with 25–500 mM of the proline analog", "protocol": "Over two dozen proline analogs (Fig. 2) were screened using electron density from X-ray crystallography as the readout for binding to human PYCR1. […] Because the compounds bind in the P5C/proline site, the mechanism of inhibition was assumed to be competitive with P5C. Therefore, steady-state kinetic measurements were performed with L-P5C as the variable substrate (0-1000 μM) and NADH fixed (175 μM) (Fig. 3). For each compound, the data were fit globally to a competitive inhibition model (Equation 1) to obtain an inhibition constant, Ki.\n06594), D,L-thiazolidine-2-carboxylate (Sigma-Aldrich no. 467995), L-thiazolidine-4-carboxylate (Sigma-Aldrich no. T27502), 1,3-thiazolidine-2,4-dicarboxylate (Sigma-Aldrich no. CDS000186), dimethyl 1,3-thiazolidine-2,4-dicarboxylate (Sigma-Aldrich no. […] 287067), L-4-hydroxyproline methyl ester (hydrochloride) (Sigma-Aldrich no. 30681), cis-4-hydroxy-D-proline methyl ester (hydrochloride) (Sigma-Aldrich no. […] 441562), L-(+)-mandelic acid (Sigma-Aldrich no. 63460), sodium-L-lactate (Sigma-Aldrich no. 71718), D-cycloserine (Sigma-Aldrich no. C6880). The proline analogs were added to apo crystals during cryoprotection by soaking the crystals in the reservoir solution supplemented with cryoprotectant (PEG 200 for the PEG 3350 form; glycerol for the NaCl form) and then in the same cryobuffer supplemented with 25–500 mM of the proline analog. Following equilibration, the crystals were harvested and rapidly plunged into liquid nitrogen.\nThe complex of PYCR1 with THFA was obtained by soaking a C2 crystal (NaCl form) for 15 min in a cryo-buffer consisting of the reservoir solution (3 M NaCl and 0.1 M HEPES at pH 7.5–8.0) supplemented with 30% glycerol and 50 mM THFA, followed by flash-cooling in liquid nitrogen. Crystals of the NFLP complex were prepared by soaking P2_12_12 crystals in the reservoir solution (250 mM Li2SO4, 19% (w/v) PEG 3350, 0.1 M HEPES, pH 7.5) supplemented with 20% (v/v) PEG 200 and 100 mM NFLP. The complexes with L-T2C and L-T4C were prepared similarly, except the Li2SO4 concentration was reduced to 25 mM and 50 mM of either L-T4C or D,L-T2C was included."}},
  "data": [
    {"smiles": "O=CN1CCC[C@H]1C(=O)O", "note": "[NFLP, N-formyl L-proline]", "values": [
      {"measurement": "13C-labeled (M + 5) fraction of proline", "setting": "[1]", "value": "decreased"},
      {"measurement": "unlabeled (M + 0) fraction of proline", "setting": "[1]", "value": "increased"},
      {"measurement": "electron density evidence for binding (in words)", "setting": "[2]", "value": "Electron density evidence for binding was observed"}
    ]}
  ]
}
